Consider 15 compounds from publication PMC8531348, “Design, synthesis, biological evaluation, and molecular modeling studies of pyrazole-benzofuran hybrids as new α-glucosidase inhibitor” (Scientific Reports, 2021).

Several values for one entry are separate records, joined by “and”; a condition that tells them apart may be missing. Equal values may be shown once. Read-outs that look alike come from different tables or passages of the source.

The target in data set [1] is T1, α-glucosidase enzyme (from Saccharomyces cerevisiae, EC3.2.1.20) (Saccharomyces cerevisiae, UniProt P53341).
T1 construct: purchased Sigma Chemical Co. (St. Louis, USA)
Briefly: biochemical. Type of data set: biochemical. Particulars: for fold more potent than the standard acarbose: ratio of IC50 versus acarbose. The procedure: The α-glucosidase enzyme (from Saccharomyces cerevisiae, EC3.2.1.20) was used to evaluate the α-glucosidase inhibitory activity. […] Therefore, α-glucosidase from yeast is extensively used for the preliminary screening of α-glucosidase inhibitors[47],[48]. […] Stock solutions of the test compounds and acarbose were prepared in DMSO and eventually diluted with phosphate buffer saline to attain the desired concentration. […] The percentage of enzyme inhibition for each entry was calculated using the following formula:
% Inhibition = [(Abs control—Abs sample)/Abs control] × 100.

Data set [2] in a line: Cytotoxicity against normal 3T3 cell line by MTT assay. It is filed as cell-based. Particulars: mouse, 3T3 cells (normal cell line); MTT assay, normal 3T3 cell line. The procedure: (§1) The results of cytotoxic activity were expressed as the IC50 (µM) and outlined in Table 2.
(§2) The cytotoxicity of the compounds 8e, 8l, 8f and 8n was determined using the 3-(4,5 Dimethylthiazol-2-yl)-2,5-diphenyltetrazolium bromide (MTT) assay according to previously described methods.

In data set [3] the test system is 3T3 cell line. The data set is described as above. Type of data set: cell-based. Particulars: at 150 µM concentration, 3T3, MTT. The procedure:
as §1, §2

The target in data set [4] is T2, α-glucosidase (Saccharomyces cerevisiae, UniProt P53341).
T2 construct: purchased Sigma Chemical Co. (St. Louis, USA)
Briefly: Kinetic study of α-glucosidase inhibition (Lineweaver–Burk plots). Type of data set: biochemical. The procedure: In different concentrations of test compound (0, 10, 25, and 40 µM) and with the incremental concentration (2–10 mM) of substrate, the rate of the enzyme activity was calculated. The type of inhibition and experimental inhibition constant (Ki) value were determined by employing Lineweaver–Burk plots and secondary re-plot of these plots, respectively. […] This pattern indicates a competitive type of inhibition.
The kinetics of enzyme inhibition was performed according to the reaction conditions in 2.5 by preparing a series of test solutions in which the concentration of the substrate (PNPG) was varied (2–10 mM) in the absence and presence of compound 8e at different concentrations (0, 10, 25, and 40 µM). A Lineweaver–Burk plot was generated to identify the type of inhibition and the Michaelis–Menten constant (Km) value was determined from the plot between reciprocal of the substrate concentration (1/[S]) and reciprocal of enzyme rate (1/V) over various inhibitor concentrations. The experimental inhibitor constant (Ki) value was constructed by secondary plots of the inhibitor concentration [I] versus Km.

T1 sequence (P53341 whole entry): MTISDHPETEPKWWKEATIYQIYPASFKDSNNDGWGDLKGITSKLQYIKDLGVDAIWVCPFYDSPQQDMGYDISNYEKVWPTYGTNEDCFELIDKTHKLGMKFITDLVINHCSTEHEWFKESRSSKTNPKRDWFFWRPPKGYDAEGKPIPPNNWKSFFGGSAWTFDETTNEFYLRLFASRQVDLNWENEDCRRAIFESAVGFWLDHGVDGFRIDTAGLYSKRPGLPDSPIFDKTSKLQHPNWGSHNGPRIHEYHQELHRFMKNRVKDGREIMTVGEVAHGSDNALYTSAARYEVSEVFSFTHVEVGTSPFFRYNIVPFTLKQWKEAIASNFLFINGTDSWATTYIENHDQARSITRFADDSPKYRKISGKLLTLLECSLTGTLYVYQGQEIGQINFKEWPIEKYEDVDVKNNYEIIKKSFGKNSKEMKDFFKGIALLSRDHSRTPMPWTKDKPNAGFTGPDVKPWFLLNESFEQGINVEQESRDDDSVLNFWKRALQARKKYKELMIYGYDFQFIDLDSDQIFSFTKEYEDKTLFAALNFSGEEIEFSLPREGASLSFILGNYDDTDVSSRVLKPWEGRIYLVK
T2 sequence (P53341 whole entry): as above

A word on the IC50: it is the point on the concentration scale where inhibition reaches its midpoint. A word on the melting point: it is the temperature of the solid-liquid transition. Compound `Cc1ccc(-n2cc(C=NNC(=O)c3cc4ccccc4o3)c(-c3ccccc3)n2)cc1` [8j, N'-((3-Phenyl-1-p-tolyl-1H-pyrazol-4-yl)methylene)benzofuran-2-carbohydrazide] showed a melting point of 255 to 256 °C. The same compound displayed an IC50 in data set [1] of 157 ± 1.6 µM.
The compound `O=C(NN=Cc1cn(-c2ccccc2)nc1-c1ccc(C(F)(F)F)cc1)c1cc2ccccc2o1` [8i, N'-((1-Phenyl-3-(4-(trifluoromethyl)phenyl)-1H-pyrazol-4-yl)methylene)benzofuran-2-carbohydrazide] had a melting point of 217 to 218 °C. Further, in data set [1], the IC50 was found to be 101.7 ± 0.7 µM.
`COc1ccc(-c2nn(-c3ccc(C)cc3)cc2C=NNC(=O)c2cc3ccccc3o2)cc1` [8l, N'-((3-(4-Methoxyphenyl)-1-p-tolyl-1H-pyrazol-4-yl)methylene)benzofuran-2-carbohydrazide] showed a melting point of 230 to 232 °C. Further, in data set [1], the half-inhibitory concentration (IC50) came to 54.7 ± 0.3 µM and the “fold more potent than the standard acarbose” value was over 13 fold. The “increase in activity compared with compound 8c” value in data set [1] (effect of methyl group on R2) is on record as “two-fold”. The concentration for half-maximal inhibition (IC50) in data set [2] was over 150 µM. The “cytotoxicity against normal cell line” value in data set [3] is “noncytotoxic”.
The compound `Cc1ccc(-n2cc(C=NNC(=O)c3cc4ccccc4o3)c(-c3ccc(Cl)cc3)n2)cc1` [8o, N'-((3-(4-Chlorophenyl)-1-p-tolyl-1H-pyrazol-4-yl)methylene)benzofuran-2-carbohydrazide] yielded a melting point of 248 to 249 °C. For the same compound, the half-maximal inhibitory concentration (IC50) in data set [1] stood at 155 ± 1.6 µM.
Regarding `O=C(NN=Cc1cn(-c2ccccc2)nc1-c1ccc(Br)cc1)c1cc2ccccc2o1` [8f, N'-((3-(4-Bromophenyl)-1-phenyl-1H-pyrazol-4-yl)methylene)benzofuran-2-carbohydrazide], the melting point was in the range of 243 to 245 °C. Further, in data set [1], it took 79.7 ± 0.5 µM to reach half-maximal inhibition (IC50) and the “fold more potent than the standard acarbose” value is on record as “nine-fold”. Also, the IC50 in data set [2] is over 150 µM. Besides, the “cytotoxicity against normal cell line” value in data set [3] was “noncytotoxic”.
The compound `Cc1ccc(-c2nn(-c3ccc(C)cc3)cc2C=NNC(=O)c2cc3ccccc3o2)cc1` [8k, N'-((1,3-Dip-tolyl-1H-pyrazol-4-yl)methylene)benzofuran-2-carbohydrazide] came in with a melting point of 259 to 261 °C. For the same compound, the concentration for half-maximal inhibition (IC50) in data set [1] was determined as 115.6 ± 0.9 µM.
With `Cc1ccc(-c2nn(-c3ccccc3)cc2C=NNC(=O)c2cc3ccccc3o2)cc1` [8b, N'-((1-Phenyl-3-p-tolyl-1H-pyrazol-4-yl)methylene)benzofuran-2-carbohydrazide], the melting point lay in the range of 234 to 235 °C. The IC50 in data set [1] was determined as 108.3 ± 0.8 µM.
Consider `Cc1ccc(-n2cc(C=NNC(=O)c3cc4ccccc4o3)c(-c3ccc(Br)cc3)n2)cc1` [8n, N'-((3-(4-Bromophenyl)-1-p-tolyl-1H-pyrazol-4-yl)methylene)benzofuran-2-carbohydrazide], for which the melting point fell in the range of 258 to 259 °C. Also, in data set [1], the concentration for half-maximal inhibition (IC50) was 95.6 ± 0.6 µM and the “fold more potent than the standard acarbose” value is “approximately eight-fold”. The IC50 in data set [2] is over 150 µM. Besides, in data set [3], the “cytotoxicity against normal cell line” value is “noncytotoxic”.
What is called Ki is the equilibrium dissociation constant of an inhibitor or competing ligand from its target. With `O=C(NN=Cc1cn(-c2ccccc2)nc1-c1ccc([N+](=O)[O-])cc1)c1cc2ccccc2o1` [8e, N'-((3-(4-Nitrophenyl)-1-phenyl-1H-pyrazol-4-yl)methylene)benzofuran-2-carbohydrazide], the IC50 in data set [1] (mean ± SD, at least three experiments, substrate p-nitrophenyl-α-glucopyranoside, read-out: IC50 α-glucosidase inhibitory activity) is 40.6 ± 0.2 µM; in data set [2], over 150 µM. Also, the “fold more potent than the standard acarbose” value in data set [1] is listed as “approximately 18 fold”. In data set [4] (Lineweaver–Burk plot), the type of inhibition entry was “competitive”. In addition, the Ki in data set [4] (secondary re-plot of Lineweaver–Burk plots, 0, 10, 25, 40 µM inhibitor, substrate 2–10 mM, read-out: inhibition constant Ki) is ~38 µM and 38 µM. The “cytotoxicity against normal cell line” value in data set [3] is “noncytotoxic”.
Take `COc1ccc(-c2nn(-c3ccccc3)cc2C=NNC(=O)c2cc3ccccc3o2)cc1` [8c, N'-((3-(4-Methoxyphenyl)-1-phenyl-1H-pyrazol-4-yl)methylene)benzofuran-2-carbohydrazide]: the melting point was in the range of 207 to 209 °C. In data set [1], the IC50 stood at 100.3 ± 0.7 µM.
As for `O=C(NN=Cc1cn(-c2ccccc2)nc1-c1ccc(F)cc1)c1cc2ccccc2o1` [8h, N'-((3-(4-Fluorophenyl)-1-phenyl-1H-pyrazol-4-yl)methylene)benzofuran-2-carbohydrazide], the melting point was in the range of 253 to 254 °C. In data set [1], this compound came in with an IC50 of 164 ± 1.8 µM.
On the same counts, the results for `Cc1ccc(-n2cc(C=NNC(=O)c3cc4ccccc4o3)c(-c3ccc(O)cc3)n2)cc1` [8m, N'-((3-(4-Hydroxyphenyl)-1-p-tolyl-1H-pyrazol-4-yl)methylene)benzofuran-2-carbohydrazide] are 293 to 295 °C and 127 ± 1 µM.
In turn, `O=C(N/N=C/c1cn(-c2ccccc2)nc1-c1ccc(O)cc1)c1cc2ccccc2o1` [8d, (E)-N'-((3-(4-hydroxyphenyl)-1-phenyl-1H-pyrazol-4-yl)methylene)benzofuran-2-carbohydrazide] showed a melting point of 280 to 281 °C. For the same compound, the half-inhibitory concentration (IC50) in data set [1] is 133.6 ± 1.2 µM.
`O=C(NN=Cc1cn(-c2ccccc2)nc1-c1ccc(Cl)cc1)c1cc2ccccc2o1` [8g, N'-((3-(4-Chlorophenyl)-1-phenyl-1H-pyrazol-4-yl)methylene)benzofuran-2-carbohydrazide]: the melting point fell in the range of 241 to 243 °C. In addition, the 50% inhibitory concentration (IC50) in data set [1] was 125.3 ± 1 µM.
The compound `O=C(NN=Cc1cn(-c2ccccc2)nc1-c1ccccc1)c1cc2ccccc2o1` [8a, N'-((1,3-Diphenyl-1H-pyrazol-4-yl)methylene)benzofuran-2-carbohydrazide] displayed a melting point of 210 to 211 °C. The midpoint of inhibition in data set [1], the IC50, lay at 141.2 ± 1.4 µM.
